We go through one molecule from patent publication US20070027136A1, “Formulations of anthraquinone derivatives” (priority 2003, published 2007).

Molecules are shown by their SMILES.

The series is described as follows: AQMN content before and after freeze drying. The note with it: 40 mg/ml, 10 mM sodium phosphate buffer pH 7.0. It counts as physicochemical. The procedure: Formulated AQ4N material was prepared at 40 mg/ml in 10 mM sodium phosphate buffer at pH 7.0. A portion of this solution was filled into ampoules and the remained into vials and freeze dried according to the cycle as specified in Tables 9 and 10.
The AQMN content of the samples before and after freeze drying (ampoule fill and vial fill, respectively) were measured as shown in Table 11.

Regarding `C[N+](C)([O-])CCNc1ccc(NCC[N+](C)(C)[O-])c2c1C(=O)c1c(O)ccc(O)c1C2=O` [AQ4N raw material], the “AQMN content (% peak area w.r.t. std.)” value came to 22.6%.
